Assay results: patent US20240041042A1, “1-(PYRIDYL)-5-AZINYLPYRAZOLE DERIVATIVES, AND THEIR USE FOR CONTROL OF UNDESIRED PLANT GROWTH” (Bayer Aktiengesellschaft, priority 2020, published 2024)

Tests used:
Assay type in all cases: in vivo
[1] = test system: Alopecurus myosuroides (ALOMY); test: Pre-emergence herbicidal action against ALOMY; conditions: 320 g/ha; scored visually after about 3 weeks; 100% = plants have died
Procedure, shortened: (§1)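 Seeds sown in pots and covered with soil; WP or EC formulations sprayed onto the soil surface at 600 l/ha water with 0.5% additive, at 320 g/ha or lower. Greenhouse growth for about 3 weeks, then visual scoring as % effect against untreated controls (100% = plants dead).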

[2] = test system: Amaranthus retroflexus (AMARE); test: Pre-emergence herbicidal action against AMARE; conditions: visual scoring after about 3 weeks vs untreated controls
Procedure, shortened: as §1

Avena fatua (AVEFA) [3] = test: Pre-emergence herbicidal action against AVEFA; conditions: 320 g/ha, visual scoring after about 3 weeks vs untreated controls
Procedure, shortened: as §1

[4] = test system: Digitaria sanguinalis (DIGSA); test: Pre-emergence herbicidal action against DIGSA
From the text: Seeds of monocotyledonous and dicotyledonous weed plants and crop plants are placed in plastic or organic planting pots and covered with soil. The compounds of the invention, formulated in the form of wettable powders (WP) or as emulsion concentrates (EC), are then applied to the surface of the covering soil as aqueous suspension or emulsion with addition of 0.5% additive at a water application rate equivalent to 600 l/ha. After the treatment, the pots are placed in a greenhouse and kept under good growth conditions for the trial plants. After about 3 weeks, the effect of the preparations is scored visually in comparison with untreated controls as percentages. For example, 100% activity=the plants have died, 0% activity=like control plants.
Tables A1 to A13 below show the effects of selected compounds of the general formula (I) on various harmful plants and at an application rate corresponding to 320 g/ha or lower, which were obtained by the experimental procedure mentioned above. The appendices “a”, “b” and “c” give differentiation by dosage used with otherwise the same harmful plants tested.

[5] = test system: Echinochloa crus-galli (ECHCG); test: Pre-emergence herbicidal action against ECHCG; conditions: dosage 320 g/ha
Procedure, shortened: as §1

Lolium rigidum (LOLRI) [6] = test: Pre-emergence herbicidal action against LOLRI; conditions: dosage 320 g/ha
Procedure, shortened: as §1

[7] = test system: Matricaria inodora (MATIN); test: Pre-emergence herbicidal action against MATIN; conditions: dosage 320 g/ha
Procedure, shortened: as §1

[8] = test system: Polygonum convolvulus (POLCO); test: Pre-emergence herbicidal action against POLCO; conditions: dosage 320 g/ha
Procedure, shortened: as §1

Setaria viridis (SETVI) [9] = test: Pre-emergence herbicidal action against SETVI; conditions: dosage 320 g/ha
Procedure, shortened: as §1

[10] = test system: Verconica persica (VERPE); test: Pre-emergence herbicidal action against VERPE; conditions: dosage 320 g/ha
Procedure, shortened: as §1

Viola tricolor (VIOTR) [11] = test: Pre-emergence herbicidal action against VIOTR; conditions: 320 g/ha, Viola tricolor
Procedure, shortened: as §1

[12] = test system: Abutilon theophrasti (ABUTH); test: Post-emergence herbicidal action against ABUTH; conditions: 320 g/ha, visual rating about 3 weeks after treatment vs untreated controls (100% = plants have died, 0% = like control plants)
Procedure, shortened: (§2)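 Doses of 320 g/ha or lower, suffixes a, b and c marking different dosages, were applied post-emergence at the one-leaf stage in 600 l/ha water with 0.5% additive. Damage was assessed visually after about 3 weeks in the greenhouse.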

[13] = test system: Alopecurus myosuroides (ALOMY); test: Post-emergence herbicidal action against ALOMY; conditions: visual rating about 3 weeks after treatment vs untreated controls (100% = plants have died, 0% = like control plants)
Procedure, shortened: as §2

[14] = test system: Amaranthus retroflexus (AMARE); test: Post-emergence herbicidal action against AMARE; conditions: 320 g/ha, visual rating about 3 weeks after treatment
Procedure, shortened: as §2

Avena fatua (AVEFA) [15] = test: Post-emergence herbicidal action against AVEFA; conditions: visual rating about 3 weeks after treatment
Procedure, shortened: as §2

[16] = test system: Echinochloa crus-galli (ECHCG); test: Post-emergence herbicidal action against ECHCG
Procedure, shortened: as §2

Lolium rigidum (LOLRI) [17] = test: Post-emergence herbicidal action against LOLRI
Procedure, shortened: as §2

[18] = test system: Matricaria inodora (MATIN); test: Post-emergence herbicidal action against MATIN; conditions: dosage 320 g/ha
Procedure, shortened: as §2

[19] = test system: Pharbitis purpurea (PHBPU); test: Post-emergence herbicidal action against PHBPU
Procedure, shortened: as §2

Setaria viridis (SETVI) [20] = test: Post-emergence herbicidal action against SETVI; conditions: dosage 320 g/ha
Procedure, shortened: as §2

[21] = test system: Verconica persica (VERPE); test: Post-emergence herbicidal action against VERPE
Procedure, shortened: as §2

Viola tricolor (VIOTR) [22] = test: Post-emergence herbicidal action against VIOTR
Procedure, shortened: as §2

CCOC(=O)COc1nn(-c2ccccn2)c(-c2ccnc(F)c2)c1Br [Example I-01, Ethyl {[4-bromo-5-(2-fluoropyridin-4-yl)-1-(pyridin-2-yl)-1H-pyrazol-3-yl]oxy}acetate]
Pre-emergence action against ALOMY [1]: 100% | Pre-emergence action against AMARE in % ([2]; 80 g/ha): 80% | Pre-emergence action against AMARE in % ([2]; 320 g/ha): 90% | Pre-emergence action against AVEFA in % (Avena fatua (AVEFA) [3]): 80% | Pre-emergence action against DIGSA in % ([4]; 80 g/ha, visual scoring after about 3 weeks vs untreated controls): 80% | Pre-emergence action against DIGSA in % ([4]; dosage 320 g/ha): 100% | Pre-emergence action against ECHCG in % [5]: 90% | Pre-emergence action against LOLRI in % (Lolium rigidum (LOLRI) [6]): 100% | Pre-emergence action against MATIN in % [7]: 100% | Pre-emergence action against POLCO in % [8]: 90% | Pre-emergence action against SETVI in % (Setaria viridis (SETVI) [9]): 100% | Pre-emergence action against VERPE in % [10]: 90% | Pre-emergence action against VIOTR in % (Viola tricolor (VIOTR) [11]): 90% | Post-emergence action against ABUTH in % [12]: 80% | Post-emergence action against ALOMY in % ([13]; 80 g/ha): 100% | Post-emergence action against ALOMY in % ([13]; 320 g/ha): 100% | Post-emergence action against AMARE in % [14]: 80% | Post-emergence action against AVEFA in % (Avena fatua (AVEFA) [15]; 80 g/ha): 90% | Post-emergence action against AVEFA in % (Avena fatua (AVEFA) [15]; 320 g/ha): 100% | Post-emergence action against ECHCG in % ([16]; dosage 80 g/ha): 80% | Post-emergence action against ECHCG in % ([16]; dosage 320 g/ha): 90% | Post-emergence action against LOLRI in % (Lolium rigidum (LOLRI) [17]; dosage 80 g/ha): 80% | Post-emergence action against LOLRI in % (Lolium rigidum (LOLRI) [17]; dosage 320 g/ha): 90% | Post-emergence action against MATIN in % [18]: 90% | Post-emergence action against PHBPU in % ([19]; dosage 80 g/ha): 80% | Post-emergence action against PHBPU in % ([19]; dosage 320 g/ha): 80% | Post-emergence action against SETVI in % (Setaria viridis (SETVI) [20]): 80% | Post-emergence action against VERPE in % ([21]; 320 g/ha, VERPE): 90% | Post-emergence action against VERPE in % ([21]; dosage 80 g/ha): 80% | Post-emergence action against VIOTR in % (Viola tricolor (VIOTR) [22]; 80 g/ha): 90% | Post-emergence action against VIOTR in % (Viola tricolor (VIOTR) [22]; 320 g/ha): 100%
